For one compound, Kd results are on record in article PMC7893202 (Acta Pharmaceutica Sinica. B, 2020).

The assay addresses T1, estrogen receptor-alpha (ERα) (Homo sapiens, UniProt P03372).
T1 sequence (P03372 311-547 limits assumed): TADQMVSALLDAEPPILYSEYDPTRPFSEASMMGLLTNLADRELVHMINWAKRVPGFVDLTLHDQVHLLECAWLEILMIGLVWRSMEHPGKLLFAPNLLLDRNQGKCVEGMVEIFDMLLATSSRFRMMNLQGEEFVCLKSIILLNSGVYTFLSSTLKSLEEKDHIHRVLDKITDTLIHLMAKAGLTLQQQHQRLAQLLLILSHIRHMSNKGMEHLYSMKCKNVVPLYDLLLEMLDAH
The assay is described as follows: fluorescence titration. Format: binding.

Compound `Cc1cc(O)cc2oc3cc(O)cc(O)c3c(=O)c12` [compound 1, norlichexanthone] registered a Kd of 10 nM.

As a reminder, the Kd is the equilibrium constant for the complex coming apart. The low end stands for tighter binding, the high end for weaker binding.
